Measurements reported in patent publication US20250109127A1, “METHODS OF USE OF PHENOXYPROPYLAMINE COMPOUNDS TO TREAT DEPRESSION” (Minerva Neurosciences, Inc., priority 2013, published 2025).
Values joined by “and” are separate entries in the source; they are usually repeats but may differ in a detail not shown here. Equal entries are not always repeated. Structures can show the parent of a compound that is named as a salt.

System: norepinephrin release in the rat prefrontal cortex
Assay: Microdialysis: norepinephrine release in prefrontal cortex after I.P. administration
Assay type: in vivo
Settings: for NOREPINEPHRIN in dialysate, individual animals / NOREPINEPHRIN in dialysate, MEAN: SON-117 0.1 mg/kg I.P.; for NOREPINEPHRIN in dialysate, individual animals: hydrochloride, 0.1 mg/kg; for NOREPINEPHRIN (% of respective basal) MEAN / NE concentrations in prefrontal cortex, significant slight increase: SON-117 0.3 mg/kg I.P.; for NOREPINEPHRIN (% of respective basal) MEAN: n = 8
Description: The aim of the study was to evaluate, using microdialysis, the effects of an intraperitoneal (I.P.) administration in rats of three different doses of SON-117 on dopamine and its metabolites, serotonin and its metabolite (5-HIAA), and norepinephrine levels in prefrontal cortex.
Thirty-two adult male Wistar rats were used for the whole study (4 groups of eight animals planned for the study, Table 1).
Surgery was performed on rats weighing about 300 g at the beginning of the experiments. Rats were anaesthetized with Ketamine (50 mg/kg) & Xylazine (15 mg/kg) by intramuscular administration. The animals were placed in a stereotaxic apparatus in the flat-skull position at a constant setting of −3.3 mm between ear bars and the incisor bar. The animals were treated with a local anesthesic (xylocaine 1%, Astra Zeneca) and an analgesic (Temgesic, from Schering Plough, 0.05 mg/kg, s.c.). A rostrocaudal midline incision was made with a lancet to expose the dorsal skull surface. The “stereotaxic zero” was defined by the Bregma in accordance with Paxinos and Watson's atlas (1986). A hole was drilled in the skull with a drill and the meninges were pierced with a sterile needle to implant a CMA12 guide cannula which later received the dialysis probe.
Coordinates used for implanting guide cannula in prefrontal cortex from Bregma were anteroposterior 3.7 mm, mediolateral 0.8 mm, and dorsoventral −2 mm (top of the probe was at −5 mm). The guide cannula was fixed to the skull with two stainless steel screws (1.88 mm outside diameter) anchored. An application of dental cement was added. A plastic collar allowed each animal to be tethered to a Swivel assembly of the CMA 120 awake animal system. Following surgery, rats were kept in individual cages and allowed to recover for a minimum of 3-5 days before the experimentation. The rats were handled and put in plastic bowl for 10 min at least every day to habituate the animals to their new environment for the dialysis. An I.P. administration with saline was also performed every day.
Dialysis probes (CMA12/3 mm, membrane, 20 kD cut-off, Carnegie Medicine, Stockholm, Sweden), were carefully washed before inserting into the guide cannula. The wash was performed with the artificial cerebrospinal fluid (aCSF) medium (NaCl 147 mM, KCl 2.7 mM, CaCl2 1.2 mM, MgCl2 0.85 mM) at room temperature. The dialysis system was then equilibrated at 20° C. at a perfusion rate of 1 μl/min with a Carnegie pump (CMA100). All catheters (FEP tubing, internal volume of 1.2 μl/10 cm, and tubing adaptors) used for microdialysis were treated in the same conditions.
The probes duly prepared were inserted into the guide cannula and the CMA120 Swivel assembly secured to the animal using a plastic collar. Flow through the dialysis probe with aCSF was maintained at a rate of 1 μl/min during the whole experimentation. The first four fractions (corresponding to 2 hours) were discarded to avoid the effects of parenchymal disturbance and to ensure that an approximate steady-state level was reached. Fractions were then collected over a period of 8.5 h during which time the animals remained quiet. The dialysates were automatically collected with an autosampler (microfraction collector CMA 140, Carnegie Medicin) and stored at −80° C. until analysis. […] Perfusion was then maintained for 7 hours with aCSF. The dialysates (30 μl) were collected into 300 μl vials, transferred into dry ice and then kept frozen (−80° C.) until analysis. Frozen samples were shipped to a partner for analysis. At the end of the microdialysis study, a PBS with colored ink was perfused through the probe in order to visualize the dialyzed area.
Catecholamine assay: Concentrations of dopamine, DOPAC, HVA, 5-HIAA, 5-HT, and norepinephrin were determined for each sample by HPLC coupled with electrochemical detection. […]

Cc1nnc(-c2cc3c(OC[C@@H](O)CN4CCC(c5ccc(Cl)c(Cl)c5)CC4)cccc3o2)o1 [SON-117, (S)-1-(4-(3,4-dichlorophenyl)piperidino)-3-(2-(5-methyl-1,3,4-oxadiazol-2-yl)benzo(b)furan-4-yloxy)-2-propanol hydrochloride]
NOREPINEPHRIN in dialysate, individual animals (T1 h 30-T2 h): 62.36 % of respective basal and 99.69 % of respective basal and 70.34 % of respective basal and 106.16 % of respective basal and 81.71 % of respective basal and 48.44 % of respective basal and 107.26 % of respective basal and 74.26 % of respective basal | NOREPINEPHRIN in dialysate, MEAN (T1 h-T1 h 30): 91.81 % of respective basal | NOREPINEPHRIN in dialysate, individual animals (T1 h-T1 h 30): 76.18 % of respective basal and 103.4 % of respective basal and 76.89 % of respective basal and 121.08 % of respective basal and 91.95 % of respective basal and 79.30 % of respective basal and 109.47 % of respective basal and 76.21 % of respective basal | NOREPINEPHRIN in dialysate, MEAN (T2 h 30-T3 h): 79.52 % of respective basal | NOREPINEPHRIN in dialysate, individual animals (T2 h 30-T3 h): 73.33 % of respective basal and 70.54 % of respective basal and 58.97 % of respective basal and 74.27 % of respective basal and 104.33 % of respective basal and 81.47 % of respective basal and 116.2 % of respective basal and 57.05 % of respective basal | NOREPINEPHRIN in dialysate, MEAN (T2 h-T2 h 30): 78.83 % of respective basal | NOREPINEPHRIN in dialysate, individual animals (T2 h-T2 h 30): 66.69 % of respective basal and 98.72 % of respective basal and 65.78 % of respective basal and 70.31 % of respective basal and 92.44 % of respective basal and 49.48 % of respective basal and 109.29 % of respective basal and 77.91 % of respective basal | NOREPINEPHRIN in dialysate, MEAN (T3 h 30-T4 h): 86.32 % of respective basal | NOREPINEPHRIN in dialysate, individual animals (T3 h 30-T4 h): 91.02 % of respective basal and 105.19 % of respective basal and 59.70 % of respective basal and 76.69 % of respective basal and 123.13 % of respective basal and 96.82 % of respective basal and 105.05 % of respective basal and 32.98 % of respective basal | NOREPINEPHRIN in dialysate, MEAN (T3 h-T3 h 30): 86.82 % of respective basal | NOREPINEPHRIN in dialysate, individual animals (T3 h-T3 h 30): 152.99 % of respective basal and 92.11 % of respective basal and 58.83 % of respective basal and 77.12 % of respective basal and 91.45 % of respective basal and 56.94 % of respective basal and 113.71 % of respective basal and 51.43 % of respective basal | NOREPINEPHRIN in dialysate, MEAN (T4 h 30-T5 h): 109.54 % of respective basal | NOREPINEPHRIN in dialysate, individual animals (T4 h 30-T5 h): 204.20 % of respective basal and 144.74 % of respective basal and 38.63 % of respective basal and 124.67 % of respective basal and 96.8 % of respective basal and 102.84 % of respective basal and 104.62 % of respective basal and 59.86 % of respective basal | NOREPINEPHRIN in dialysate, MEAN (T4 h-T4 h 30): 111.29 % of respective basal | NOREPINEPHRIN in dialysate, individual animals (T4 h-T4 h 30): 220.91 % of respective basal and 88.73 % of respective basal and 75.17 % of respective basal and 90.11 % of respective basal and 112.61 % of respective basal and 91.91 % of respective basal and 116.00 % of respective basal and 94.90 % of respective basal | NOREPINEPHRIN in dialysate, MEAN (T5 h 30-T6 h): 93.44 % of respective basal | NOREPINEPHRIN in dialysate, individual animals (T5 h 30-T6 h): 159.66 % of respective basal and 111.49 % of respective basal and 76.32 % of respective basal and 79.52 % of respective basal and 94.09 % of respective basal and 72.17 % of respective basal and 101.35 % of respective basal and 52.95 % of respective basal | NOREPINEPHRIN in dialysate, MEAN (T5 h-T5 h 30): 94.69 % of respective basal | NOREPINEPHRIN in dialysate, individual animals (T5 h-T5 h 30): 188.91 % of respective basal and 96.57 % of respective basal and 69.39 % of respective basal and 78.76 % of respective basal and 94.15 % of respective basal and 68.42 % of respective basal and 102.42 % of respective basal and 58.91 % of respective basal | NOREPINEPHRIN in dialysate, MEAN (T6 h 30-T7 h): 117.60 % of respective basal | NOREPINEPHRIN in dialysate, MEAN (T6 h-T6 h 30): 89.68 % of respective basal | NOREPINEPHRIN in dialysate, individual animals (T6 h-T6 h 30): 196.16 % of respective basal and 73.01 % of respective basal and 27.50 % of respective basal and 79.85 % of respective basal and 96.77 % of respective basal and 85.56 % of respective basal | NOREPINEPHRIN in dialysate, MEAN (T-30 min-T0 (pre-dose)): 91.33 % of respective basal | NOREPINEPHRIN in dialysate, MEAN (T-1 h 30-T-1 h (pre-dose)): 109.41 % of respective basal | NOREPINEPHRIN in dialysate, MEAN (T-1 h-T-30 min (pre-dose)): 99.26 % of respective basal | levels of NE compared to the citalopram treated group (two-way ANOVA, significant) (SON-117 0.1 mg/kg vs citalopram 10 mg/kg, at 4.5 h and 7 h): higher | NOREPINEPHRIN (% of respective basal) MEAN (T0-T30 min): 109.06 % of respective basal | NOREPINEPHRIN (% of respective basal) MEAN (T30-T1 h): 104.15 % of respective basal | NOREPINEPHRIN (% of respective basal) MEAN (T1 h 30-T2 h): 95.77 % of respective basal | NOREPINEPHRIN (% of respective basal) MEAN (T1 h-T1 h 30): 100.55 % of respective basal | NOREPINEPHRIN (% of respective basal) MEAN (T2 h 30-T3 h): 106.82 % of respective basal | NOREPINEPHRIN (% of respective basal) MEAN (T2 h-T2 h 30): 100.26 % of respective basal | NOREPINEPHRIN (% of respective basal) MEAN (T3 h 30-T4 h): 128.69 % of respective basal | NOREPINEPHRIN (% of respective basal) MEAN (T3 h-T3 h 30): 116.32 % of respective basal | NOREPINEPHRIN (% of respective basal) MEAN (T4 h 30-T5 h): 125.81 % of respective basal | NOREPINEPHRIN (% of respective basal) MEAN (T4 h-T4 h 30): 119.37 % of respective basal | NOREPINEPHRIN (% of respective basal) MEAN (T5 h 30-T6 h): 135.41 % of respective basal | NOREPINEPHRIN (% of respective basal) MEAN (T5 h-T5 h 30): 124.93 % of respective basal | NOREPINEPHRIN (% of respective basal) MEAN (T6 h 30-T7 h): 140.96 % of respective basal | NOREPINEPHRIN (% of respective basal) MEAN (T6 h-T6 h 30): 137.68 % of respective basal | NOREPINEPHRIN (% of respective basal) MEAN (T-30 min-T0 (before administration)): 94.72 % of respective basal | NOREPINEPHRIN (% of respective basal) MEAN (T-1 h 30-T-1 h (before administration)): 105.37 % of respective basal | NOREPINEPHRIN (% of respective basal) MEAN (T-1 h-T-30 min (before administration)): 99.90 % of respective basal | NE concentrations in prefrontal cortex, significant slight increase (at 3.5 h): 117% | NE concentrations in prefrontal cortex, significant slight increase (from 4.5 h to 7 h): 128% | levels of NE compared to the citalopram treated group (two-way ANOVA, significant) (SON-117 0.3 mg/kg vs citalopram 10 mg/kg, at 3.5 h, 4 h, 4.5 h, 5 h, 5.5 h, 6 h and 7 h): higher | NE dialysate levels vs mean pre-administration value (SON-117 3 mg/kg IP): no statistically significant differences | levels of NE compared to the citalopram treated group (two-way ANOVA, significant) (SON-117 3 mg/kg vs citalopram 10 mg/kg, at 1.5 h and 3.5 h): higher | release of NE, maximum increase (SON-117, three doses tested, 7 h after administration): 129%
